One experiment concerns the target Rho kinase 1 (ROCK1) (Homo sapiens, UniProt Q13464). The experiment is described as follows: In vitro inhibitory activity assay ROCK1 (ADP-Glo). The class given is biochemical. As to conditions: ATP 200 μM, Cheng-Prusoff from IC50; read-out: ROCK 1 (Ki, range of activity). As for the experimental part: (§1) The effectiveness of compounds of the present invention to inhibit Rho kinase activity can be determined in a 10 μl assay containing 40 mM Tris pH7.5, 20 mM MgCl2 0.1 mg/mL BSA, 50 μM DTT and 2.5 μM peptide substrate (Myelin Basic Protein) using an ADP-Glo kit (Promega). Compounds were dissolved in DMSO such that the final concentration of DMSO was 1% in the assay. All reactions/incubations are performed at 25° C. Compound (2 ul) and either Rho kinase 1 or 2 (4 μl) were mixed and incubated for 30 mins. Reactions were initiated by addition of ATP (4μ1) such that the final concentration of ATP in the assay was 200 μM. After a 1 hour incubation 10 μl of ADP-Glo Reagent was added and after a further 1 hour incubation 20 ul of Kinase Detection Buffer was added and the mixture incubated for a further 45 minutes. The luminescent signal was measured on a luminometer. […] Compounds were tested in dose-response format and the inhibition of kinase activity was calculated at each concentration of compound. To determine the IC50 (concentration of compound required to inhibit 50% of the enzyme activity) data were fit to a plot of % inhibition vs Log10 compound concentration using a sigmoidal fit with a variable slope and fixing the maximum to 100% and the minimum to 0%. To determine the Ki values the Cheng-Prusoff equation was utilized (Ki=IC50/(1+[S]/Km).

In experiment [1] the test system is cch-evoked bronchoconstriction. The experiment is described as follows: Experimental bronchospasm (carbachol-induced bronchoconstriction, Konzett & Roessler). It counts as in vivo, Male CD Sprague Dawley rats. As to conditions: iv; rat, dose 10 μg/Kg intratracheal, 1 hour after administration, carbachol 80 μg/kg i.v.; read-out: Inhibition % (±s.e. mean) of cch-evoked bronchoconstriction. As for the experimental part:
Male CD Sprague Dawley rats (220-250 g) were purchased from Charles River Laboratories Italy (Calco, Lecco). Prior to use animals were acclimated for at least 5 days 20 to the local vivarium conditions (room temperature: 20-24° C.; relative humidity: 40-70%), having free access to standard rat chow and softened tap water. All the procedures were performed in animal operating rooms according to ethical guidelines for the conduct of animal research (D. L.vo 116/92).
Rats were anaesthetized with a combination of anesthetics (Zoletil 20 mg/kg+Xylazine 5 mg/kg, ip) for the i.t. administration. A laryngoscope was moved forward into the mouth to visualize the trachea and guide the insertion of the tip of a custom-made small diameter cannula directly into the trachea and located 1-2 mm above the bifurcation.
In order to assess the residual inhibitory activity of test compounds 1 hour after their administration, rats were surgically prepared. Body temperature was kept constant at 37° C. by a heated blanket.
The trachea was cannulated and the lungs were ventilated artificially with a constant volume ventilator (rodent ventilator mod. 7025, Ugo Basile, Comerio, Varese, Italy) at a frequency of 80 strokes/min and at a tidal volume of 10 ml/kg. To avoid spontaneous breathing, the animals were injected intravenously (i.v.) with pancuronium bromide (2 mg/kg).
Bronchoconstriction was induced by the i.v. injection of carbachol (cch) 80 μg/kg. In control experiments, repeated injections of this dose produced reproducible short-lasting (1-2 min duration) bronchospasms. Bronchoconstriction, quantified as a reduction of tidal volume, was evaluated according to the method described by Konzett & Roessler (1). Systemic blood pressure and changes in airway resistance were monitored with a digital pressure transducer.
After stabilisation of artificial breathing and blood pressure, animals were injected (i.v.) with cch every 3 min, until 3 stable and reproducible basal responses were obtained. […] The effect of test compounds was 15 expressed as % inhibition of cch-evoked bronchoconstriction in time-matched, vehicle-treated, animals (controls).
Tested compounds were dissolved in dH2O and 1% Tween-80 or 0,001% HCl and further diluted to target concentrations. Tested compounds were instilled locally into the trachea in a volume of 125 μl.
All data are presented as mean±s.e.mean. The % inhibition of experimental bronchospasm was calculated comparing the drug-treated with the vehicle-treated control animals. Data analysis was performed using GraphPad Prism software.

A further experiment has as its target PKA (Homo sapiens, UniProt P17612). Kind of experiment: In vitro inhibitory activity assay for PKA (ADP-Glo), reported as selectivity ratio vs ROCK2. As to conditions: Ki value for PKA divided by Ki value of ROCK2. The class given is biochemical. How it is done: The effectiveness of compounds of the present invention to inhibit PKA activity can be determined in a 10 μl assay containing 40 mM Tris pH7.5, 20 mM MgCl2 0.1 mg/ml BSA, 50 μM DTT and 260 μM peptide substrate (kemptide) using an ADP-Glo kit (Promega). Compounds were dissolved in DMSO such that the final concentration of DMSO was 1% in the assay. All reactions/incubations are performed at 25° C. Compound and PKA enzyme (6 μl) were mixed and incubated for 30 mins. Reactions were initiated by addition of ATP (4 μl ) such that the final concentration of ATP in the assay was 10 μM. After a 30 minute incubation 10 μl of ADP-Glo Reagent was added and after a further 1 hour incubation 20 μl of Kinase Detection Buffer was added and the mixture incubated for a further 45 minutes. The luminescent signal was measured on a luminometer. […] Compounds were tested in dose-response format and the inhibition of kinase activity was calculated at each concentration of compound. To determine the IC50 (concentration of compound required to inhibit 50% of the enzyme activity) data were fit to a plot of % inhibition vs Logio compound concentration using a sigmoidal fit with a variable slope and fixing the maximum to 100% and the minimum to 0%. To determine the Ki values the Cheng-Prusoff equation was utilized (Ki=IC50/(1+[S]/Km).
In vitro inhibitory activities for PKA were reported as selectivity ratio vs. ROCK-2.

The target in another experiment is Rho kinase 2 (ROCK2) (Homo sapiens, UniProt O75116). The experiment is described as follows: In vitro inhibitory activity assay ROCK2 (ADP-Glo). It counts as biochemical. As to conditions: ATP 200 μM, Cheng-Prusoff from IC50; read-out: ROCK2 (Ki, range of activity). How it is done:
as §1
Background: ADP-Glo first removes unused ATP, then detects ADP through luciferase.

Some results are limits rather than exact numbers.

These results are taken from US20240092791A1, “DIHYDROFUROPYRIDINE DERIVATIVES AS RHO-KINASE INHIBITORS” (CHIESI FARMACEUTICI S.P.A., priority 2020, published 2024).

One may read the Ki as the dissociation constant of the complex between target and ligand, obtained from inhibition or displacement.

Rho kinase 1 (ROCK1), sequence (Q13464 whole entry): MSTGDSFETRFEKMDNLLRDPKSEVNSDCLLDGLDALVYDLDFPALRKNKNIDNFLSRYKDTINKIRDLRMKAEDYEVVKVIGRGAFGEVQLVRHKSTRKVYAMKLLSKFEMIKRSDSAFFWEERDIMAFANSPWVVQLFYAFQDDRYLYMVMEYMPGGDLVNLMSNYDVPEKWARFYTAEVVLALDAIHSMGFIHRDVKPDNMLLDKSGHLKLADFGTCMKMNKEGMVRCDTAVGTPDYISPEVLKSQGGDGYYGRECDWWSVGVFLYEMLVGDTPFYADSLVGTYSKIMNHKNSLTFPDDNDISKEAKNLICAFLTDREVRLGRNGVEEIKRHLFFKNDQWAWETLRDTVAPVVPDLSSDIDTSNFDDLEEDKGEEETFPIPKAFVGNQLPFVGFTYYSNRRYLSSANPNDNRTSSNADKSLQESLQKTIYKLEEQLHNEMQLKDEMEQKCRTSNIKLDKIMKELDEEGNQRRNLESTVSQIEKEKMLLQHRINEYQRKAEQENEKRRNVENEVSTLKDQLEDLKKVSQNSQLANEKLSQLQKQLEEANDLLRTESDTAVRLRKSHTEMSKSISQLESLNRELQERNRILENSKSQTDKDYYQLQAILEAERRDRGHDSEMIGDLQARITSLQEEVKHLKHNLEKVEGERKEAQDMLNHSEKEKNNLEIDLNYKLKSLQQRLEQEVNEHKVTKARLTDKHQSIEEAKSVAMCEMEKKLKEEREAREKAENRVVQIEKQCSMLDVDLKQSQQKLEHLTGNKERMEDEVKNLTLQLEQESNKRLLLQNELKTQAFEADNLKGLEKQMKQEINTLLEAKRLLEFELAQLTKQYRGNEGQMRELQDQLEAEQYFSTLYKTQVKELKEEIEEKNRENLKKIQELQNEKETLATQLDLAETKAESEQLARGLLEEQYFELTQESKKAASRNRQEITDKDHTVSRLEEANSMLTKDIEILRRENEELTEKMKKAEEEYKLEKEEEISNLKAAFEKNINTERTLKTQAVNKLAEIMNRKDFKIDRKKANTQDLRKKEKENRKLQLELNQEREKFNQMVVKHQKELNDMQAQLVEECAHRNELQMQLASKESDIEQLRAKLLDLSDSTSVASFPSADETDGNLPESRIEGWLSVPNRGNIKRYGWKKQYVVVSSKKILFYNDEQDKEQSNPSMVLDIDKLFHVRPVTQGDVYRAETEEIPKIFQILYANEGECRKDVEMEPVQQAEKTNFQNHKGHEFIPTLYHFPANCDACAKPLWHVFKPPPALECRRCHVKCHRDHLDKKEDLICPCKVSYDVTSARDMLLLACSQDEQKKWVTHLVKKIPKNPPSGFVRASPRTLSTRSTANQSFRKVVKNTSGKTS
Rho kinase 2 (ROCK2), sequence (O75116 whole entry): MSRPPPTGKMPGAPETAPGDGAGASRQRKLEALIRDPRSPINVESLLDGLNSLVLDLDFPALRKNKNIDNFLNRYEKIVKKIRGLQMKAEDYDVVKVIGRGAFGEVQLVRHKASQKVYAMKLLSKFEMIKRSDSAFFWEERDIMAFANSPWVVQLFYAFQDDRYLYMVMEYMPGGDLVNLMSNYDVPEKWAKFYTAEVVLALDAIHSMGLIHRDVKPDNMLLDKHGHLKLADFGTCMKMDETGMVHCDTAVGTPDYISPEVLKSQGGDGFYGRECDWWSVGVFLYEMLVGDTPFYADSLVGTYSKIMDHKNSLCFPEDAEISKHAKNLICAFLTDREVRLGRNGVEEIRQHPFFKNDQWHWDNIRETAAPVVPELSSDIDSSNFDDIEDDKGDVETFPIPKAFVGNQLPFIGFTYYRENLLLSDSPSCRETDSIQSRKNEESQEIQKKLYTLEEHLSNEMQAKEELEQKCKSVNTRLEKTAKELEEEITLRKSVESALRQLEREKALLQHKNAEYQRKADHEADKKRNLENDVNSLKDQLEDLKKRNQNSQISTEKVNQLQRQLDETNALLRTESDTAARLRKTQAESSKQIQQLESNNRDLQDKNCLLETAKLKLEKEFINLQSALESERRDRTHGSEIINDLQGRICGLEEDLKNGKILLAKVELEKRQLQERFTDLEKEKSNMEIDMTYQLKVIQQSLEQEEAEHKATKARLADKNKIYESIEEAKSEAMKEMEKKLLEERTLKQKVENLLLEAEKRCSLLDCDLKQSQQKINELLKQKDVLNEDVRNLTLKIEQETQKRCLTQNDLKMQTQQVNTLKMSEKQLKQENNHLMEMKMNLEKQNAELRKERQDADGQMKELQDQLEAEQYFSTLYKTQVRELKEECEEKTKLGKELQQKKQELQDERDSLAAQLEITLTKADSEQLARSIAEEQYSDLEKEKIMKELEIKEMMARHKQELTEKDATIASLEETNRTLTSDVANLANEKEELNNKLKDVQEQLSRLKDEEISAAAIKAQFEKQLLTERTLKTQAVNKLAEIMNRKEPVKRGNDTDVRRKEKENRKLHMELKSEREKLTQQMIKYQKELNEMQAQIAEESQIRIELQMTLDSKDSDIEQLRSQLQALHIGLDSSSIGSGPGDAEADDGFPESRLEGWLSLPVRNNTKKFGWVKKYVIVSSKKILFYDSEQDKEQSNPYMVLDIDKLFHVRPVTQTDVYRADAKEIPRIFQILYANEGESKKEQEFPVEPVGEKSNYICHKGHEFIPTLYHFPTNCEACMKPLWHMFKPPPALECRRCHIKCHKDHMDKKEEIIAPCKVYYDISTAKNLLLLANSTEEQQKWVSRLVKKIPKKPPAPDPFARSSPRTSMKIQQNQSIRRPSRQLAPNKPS

On to `CNCCOc1ccc(NC(=O)c2cccc(CNc3ncc(-c4ccnc(N)n4)c4c3CCO4)c2)nc1` [Example 73, 3-(((7-(2-aminopyrimidin-4-yl)-2,3-dihydrofuro[3,2-c]pyridin-4-yl)amino)methyl)-N-(5-(2-(methylamino)ethoxy)pyridin-2-yl)benzamide], for which the Ki on Rho kinase 1 (ROCK1) and at Rho kinase 2 (ROCK2) was at most 3 nM throughout. For the same compound, the inhibition in vivo at 0.01 mg/kg in experiment [1] was found to be 76.6 ± 6%. The “Ratio (PKA/ROCK2)” value on PKA is “*** (ratio≥10)”.
